Assay results as given in patent US20260256792A1, “TREATMENT OF CHRONIC SPONTANEOUS URTICARIA BY ADMINISTERING (R)-2-[3-[4-AMINO-3-(2-FLUORO-4-PHENOXY-PHENYL)PYRAZOLO[3,4-D]PYRIMIDIN-1-YL]PIPERIDINE-1-CARBONYL]-4-METHYL-4-[4-(OXETAN-3-YL)PIPERAZIN-1-YL]PENT-2-ENENITRILE” (priority 2023, published 2026).

Test system: moderate-to-severe chronic spontaneous urticaria (CSU)
Assay: Phase 2 CSU study: itch severity score over 7 days (ISS7)
Format: in vivo, human
Source text: The study comprises a 12 week, randomized, double-blind, placebo-controlled, multi-center, dose-ranging efficacy and safety phase, followed by a 40 week open label extension (OLE) phase (see FIG. 1). The study consists of three phases and an optional OLE phase. […] Clinically, CSU is characterized by the spontaneous and recurrent appearance of pruritic hives. The proposed primary endpoints were the UAS7 at Week 12 in EU and EU reference countries and the ISS7 in the US. Regardless of where a participant was from, all assessments were the same. The UAS7 score is a composite score containing both the HSS7 and the ISS7. This allowed a global assessment of the two key components of urticaria: hives and itch. […] The UAS is a validated PRO measure. […] The daily UAS scores range from 0 to 6 point/day. […] Patients were to complete the UAS using the e-diary. […] The following secondary endpoints were to be analyzed using the same approach as for the primary endpoint: • Change from baseline in UAS7 at Week 4 • Change from baseline in UAS7 at Week 12 (for US and US reference countries) • Change from baseline in ISS7 at Week 12 (except US and US reference countries) • Change from baseline in HSS7 at Week 12

[1] = Week 4, 400 mg TID, Prior Omalizumab Use
[2] = Week 5, 400 mg BID, Omalizumab-Naïve
[3] = Week 5, 400 mg BID, Prior Omalizumab Use
[4] = Week 5, 400 mg QPM, Omalizumab-Naïve
[5] = Week 5, 400 mg QPM, Prior Omalizumab Use
[6] = Week 5, 400 mg TID, Omalizumab-Naïve
[7] = Week 5, 400 mg TID, Prior Omalizumab Use
[8] = Week 6, 400 mg BID, Omalizumab-Naïve
[9] = Week 6, 400 mg BID, Prior Omalizumab Use
[10] = Week 6, 400 mg QPM, Omalizumab-Naïve
[11] = Week 6, 400 mg QPM, Prior Omalizumab Use
[12] = Week 6, 400 mg TID, Omalizumab-Naïve
[13] = Week 6, 400 mg TID, Prior Omalizumab Use
[14] = Week 7, 400 mg BID, Omalizumab-Naïve
[15] = Week 7, 400 mg BID, Prior Omalizumab Use
[16] = Week 7, 400 mg QPM, Omalizumab-Naïve
[17] = Week 7, 400 mg QPM, Prior Omalizumab Use

**Q.** For `CC(C)(C=C(C#N)C(=O)N1CCC[C@@H](n2nc(-c3ccc(Oc4ccccc4)cc3F)c3c(N)ncnc32)C1)N1CCN(C2COC2)CC1` [rilzabrutinib, (R)-2-[3-[4-amino-3-(2-fluoro-4-phenoxy-phenyl)pyrazolo[3,4-d]pyrimidin-1-yl]piperidine-1-carbonyl]-4-methyl-4-[4-(oxetan-3-yl)piperazin-1-yl]pent-2-enenitrile], which “ISS7 Mean (SD)” value [1] is on record?
**A.** 6.17 (6.41)

**Q.** What about the “ISS7 Median” value [1] of the same molecule?
**A.** 5.42

**Q.** And the “ISS7 Percent change from baseline Mean (SD)” value (“ISS7 Percent change … (SD)” below) [1]?
**A.** −61.65 (32.63) %

**Q.** What about the “ISS7 Percent change from baseline Median” value [1] of the same molecule?
**A.** −62.50%

**Q.** What about the “ISS7 Change from baseline Mean (SD)” value [2] of the same molecule?
**A.** −6.55 (6.17)

**Q.** And the “ISS7 Change from baseline Median” value [2]?
**A.** −6.42

**Q.** What about the “ISS7 Mean (SD)” value [2] of the same molecule?
**A.** 8.88 (6.81)

**Q.** And the “ISS7 Median” value [2]?
**A.** 8.50

**Q.** What about the “ISS7 Percent change … (SD)” value [2] of the same molecule?
**A.** −43.73 (41.21) %

**Q.** And the “ISS7 Percent change from baseline Median” value [2]?
**A.** −39.85%

**Q.** What about the “ISS7 Change from baseline Median” value [3] of the same molecule?
**A.** −14.50

**Q.** What about the “ISS7 Mean (SD)” value [3] of the same molecule?
**A.** 5.50 (8.54)

**Q.** And the “ISS7 Median” value [3]?
**A.** 2.00

**Q.** And the “ISS7 Percent change … (SD)” value [3]?
**A.** −68.33 (47.26) %

**Q.** And the “ISS7 Percent change from baseline Median” value [3]?
**A.** −86.67%

**Q.** What about the “ISS7 Change from baseline Mean (SD)” value [4] of the same molecule?
**A.** −5.53 (4.98)

**Q.** What about the “ISS7 Change from baseline Median” value [4] of the same molecule?
**A.** −4.10

**Q.** And the “ISS7 Mean (SD)” value [4]?
**A.** 11.00 (4.68)

**Q.** What about the “ISS7 Percent change … (SD)” value [4] of the same molecule?
**A.** −31.93 (26.18) %

**Q.** What about the “ISS7 Percent change from baseline Median” value [4] of the same molecule?
**A.** −30.00%

**Q.** What about the “ISS7 Change from baseline Mean (SD)” value [5] of the same molecule?
**A.** −10.00 (NC)

**Q.** And the “ISS7 Change from baseline Median” value [5]?
**A.** −10.00

**Q.** What about the “ISS7 Mean (SD)” value [5] of the same molecule?
**A.** 11.00 (NC)

**Q.** What about the “ISS7 Percent change … (SD)” value [5] of the same molecule?
**A.** −47.62 (NC) %

**Q.** And the “ISS7 Percent change from baseline Median” value [5]?
**A.** −47.62%

**Q.** And the “ISS7 Change from baseline Mean (SD)” value [6]?
**A.** −9.18 (6.46)

**Q.** And the “ISS7 Change from baseline Median” value [6]?
**A.** −9.00

**Q.** And the “ISS7 Mean (SD)” value [6]?
**A.** 6.92 (5.87)

**Q.** What about the “ISS7 Median” value [6] of the same molecule?
**A.** 7.00

**Q.** And the “ISS7 Percent change … (SD)” value [6]?
**A.** −55.68 (34.88) %

**Q.** What about the “ISS7 Percent change from baseline Median” value [6] of the same molecule?
**A.** −56.25%

**Q.** And the “ISS7 Mean (SD)” value [7]?
**A.** 5.50 (6.53)

**Q.** And the “ISS7 Median” value [7]?
**A.** 3.00

**Q.** And the “ISS7 Percent change … (SD)” value [7]?
**A.** −66.60 (31.51) %

**Q.** What about the “ISS7 Percent change from baseline Median” value [7] of the same molecule?
**A.** −72.43%

**Q.** And the “ISS7 Change from baseline Mean (SD)” value [8]?
**A.** −6.58 (5.90)

**Q.** And the “ISS7 Change from baseline Median” value [8]?
**A.** −5.75

**Q.** And the “ISS7 Mean (SD)” value [8]?
**A.** 8.85 (6.40)

**Q.** What about the “ISS7 Percent change … (SD)” value [8] of the same molecule?
**A.** −42.90 (39.02) %

**Q.** And the “ISS7 Percent change from baseline Median” value [8]?
**A.** −33.40%

**Q.** And the “ISS7 Change from baseline Mean (SD)” value [9]?
**A.** −10.13 (9.42)

**Q.** And the “ISS7 Change from baseline Median” value [9]?
**A.** −14.00

**Q.** What about the “ISS7 Mean (SD)” value [9] of the same molecule?
**A.** 7.07 (8.32)

**Q.** And the “ISS7 Median” value [9]?
**A.** 2.33

**Q.** What about the “ISS7 Percent change … (SD)” value [9] of the same molecule?
**A.** −56.44 (51.68) %

**Q.** And the “ISS7 Change from baseline Mean (SD)” value [10]?
**A.** −6.59 (5.45)

**Q.** What about the “ISS7 Change from baseline Median” value [10] of the same molecule?
**A.** −5.00

**Q.** And the “ISS7 Mean (SD)” value [10]?
**A.** 10.27 (5.26)

**Q.** And the “ISS7 Percent change … (SD)” value [10]?
**A.** −38.20 (29.52) %

**Q.** What about the “ISS7 Percent change from baseline Median” value [10] of the same molecule?
**A.** −31.67%

**Q.** And the “ISS7 Change from baseline Mean (SD)” value [11]?
**A.** −12.00 (NC)

**Q.** And the “ISS7 Change from baseline Median” value [11]?
**A.** −12.00

**Q.** And the “ISS7 Mean (SD)” value [11]?
**A.** 9.00 (NC)

**Q.** What about the “ISS7 Median” value [11] of the same molecule?
**A.** 9.00

**Q.** And the “ISS7 Percent change … (SD)” value [11]?
**A.** −57.14 (NC) %

**Q.** What about the “ISS7 Percent change from baseline Median” value [11] of the same molecule?
**A.** −57.14%

**Q.** What about the “ISS7 Change from baseline Mean (SD)” value [12] of the same molecule?
**A.** −8.71 (6.32)

**Q.** What about the “ISS7 Change from baseline Median” value [12] of the same molecule?
**A.** −7.50

**Q.** What about the “ISS7 Mean (SD)” value [12] of the same molecule?
**A.** 7.32 (6.05)

**Q.** And the “ISS7 Median” value [12]?
**A.** 7.00

**Q.** What about the “ISS7 Percent change … (SD)” value [12] of the same molecule?
**A.** −53.59 (35.59) %

**Q.** And the “ISS7 Percent change from baseline Median” value [12]?
**A.** −50.00%

**Q.** What about the “ISS7 Change from baseline Mean (SD)” value [13] of the same molecule?
**A.** −12.83 (7.49)

**Q.** And the “ISS7 Change from baseline Median” value [13]?
**A.** −14.50

**Q.** What about the “ISS7 Mean (SD)” value [13] of the same molecule?
**A.** 4.17 (6.88)

**Q.** What about the “ISS7 Median” value [13] of the same molecule?
**A.** 2.00

**Q.** What about the “ISS7 Percent change … (SD)” value [13] of the same molecule?
**A.** −75.50 (33.00) %

**Q.** What about the “ISS7 Percent change from baseline Median” value [13] of the same molecule?
**A.** −88.10%

**Q.** And the “ISS7 Change from baseline Mean (SD)” value [14]?
**A.** −7.28 (5.95)

**Q.** And the “ISS7 Change from baseline Median” value [14]?
**A.** −8.08

**Q.** What about the “ISS7 Mean (SD)” value [14] of the same molecule?
**A.** 8.21 (6.16)

**Q.** And the “ISS7 Median” value [14]?
**A.** 7.00

**Q.** And the “ISS7 Percent change … (SD)” value [14]?
**A.** −46.93 (37.51) %

**Q.** What about the “ISS7 Percent change from baseline Median” value [14] of the same molecule?
**A.** −56.35%

**Q.** And the “ISS7 Change from baseline Mean (SD)” value [15]?
**A.** −10.40 (9.91)

**Q.** What about the “ISS7 Change from baseline Median” value [15] of the same molecule?
**A.** −13.00

**Q.** What about the “ISS7 Mean (SD)” value [15] of the same molecule?
**A.** 6.80 (8.56)

**Q.** What about the “ISS7 Median” value [15] of the same molecule?
**A.** 2.00

**Q.** And the “ISS7 Percent change … (SD)” value [15]?
**A.** −57.33 (52.62) %

**Q.** What about the “ISS7 Percent change from baseline Median” value [15] of the same molecule?
**A.** −86.67%

**Q.** What about the “ISS7 Change from baseline Mean (SD)” value [16] of the same molecule?
**A.** −6.11 (5.15)

**Q.** And the “ISS7 Change from baseline Median” value [16]?
**A.** −5.20

**Q.** What about the “ISS7 Mean (SD)” value [16] of the same molecule?
**A.** 10.68 (5.34)

**Q.** And the “ISS7 Percent change … (SD)” value [16]?
**A.** −36.22 (29.09) %

**Q.** What about the “ISS7 Percent change from baseline Median” value [16] of the same molecule?
**A.** −37.78%

**Q.** And the “ISS7 Change from baseline Mean (SD)” value [17]?
**A.** −13.00 (NC)

**Q.** And the “ISS7 Change from baseline Median” value [17]?
**A.** −13.00

**Q.** What about the “ISS7 Mean (SD)” value [17] of the same molecule?
**A.** 8.00 (NC)

**Q.** And the “ISS7 Median” value [17]?
**A.** 8.00

**Q.** What about the “ISS7 Percent change … (SD)” value [17] of the same molecule?
**A.** −61.90 (NC) %

**Q.** And the “ISS7 Percent change from baseline Median” value [17]?
**A.** −61.90%
